Data reported in US6525054B1, “Cyanoiminoquinoxaline derivatives” (Shionogi & Co., Ltd., priority 1998, dated 2003).
Where a name gives a salt, the structure may show the parent alone.

Legend:
[1] = target: AMPA receptor; experiment: Receptor affinity: [3H]AMPA binding to rat cerebral cortex membrane fraction; set-up: species or system Slc-Wistar rat; conditions: 30 nM [3H]AMPA, 0° C. 30 min
Experimental: (§1) As to 2-cyanoimino-1,4-dihydro-7-(1,4-dihydro-4-oxo-1-pyridyl)-6-nitro-3-quinoxaline monosodium salt (hereinafter referred to as compound 2(2)) obtained in Example 2(2), the affinity for the AMPA receptor and glycine-binding site of the NMDA receptor was determined as follows.
Cerebral cortex of Slc-Wistar rat (body weight: 250˜300 g) was homogenized with 10 times volume of 30 mM Tris-acetate buffer (pH 7.1) containing 2.5 mM CaCl2, then the mixture was centrifugalized (30,000×g, 15 min) and re-suspended (×3 times). The resultant suspension was restored at −80° C. until use. The froze suspension was thawed at room temperature and suspended into 30 mM Tris-acetate buffer (pH 7.1) containing 2.5 mM CaCl2 and 100 mM KSCN, to give a membrane fraction. The membrane fraction was incubated with 30 nM [^3H]AMPA and a test compound of various concentrations at 0° C. for 30 min. The mixture was diluted and collected by filtration with Whatman GF/C filter to terminate the reaction, then the radioactivity of ^3H remained on the filter was determined with a liquid scintillation counter. The non-specific binding was determined using 1 mM non-radioactive glutamate to calculate the IC50 value.

[2] = system: kidney; experiment: Nephrotoxicity; assay type: in vivo; conditions: 100 mg/kg i.v. bolus, SD rat, 24 hr later
Experimental: Compound 2(2) was intravenously administered by a bolus of 100 mg/kg to SD rat (9-10 weeks), which was killed 24 hr later. The both-side kidneys were immediately extracted from the rat. After measuring the weight, one kidney was embedded in paraffin to give a tissue preparation. The other kidney was homogenized, then the extract was subjected to liquid chromatography to determine the concentration of compound 2(2).

[3] = system: AMPA-induced seizure; experiment: Anticonvulsant effect on AMPA-induced seizure; assay type: in vivo, Slc-ddY mouse; conditions: iv; mouse, i.v. 1 min before AMPA 2 nmol/5 μL i.c.v., observed 15 min, Probit method
Experimental: The anticonvulsant effect of compound 2(2) on AMPA-induced seizure was determined. According to the method described in J. T. Haley and W. G. McCormich, Br. J. Pharmacol. 12, 12-15(1957), AMPA 2 nmol/5 μL was intracerebroventricular administered to the cerebral ventricle of Slc-ddY mouse (4-5 weeks, male). The test compound, in a volume of 0.1 mL /10 g, was intravenously administered 1 min before the AMPA administration. The convulsion was examined by observing and checking, for 15 min from the AMPA administration, the reveal of jumping, wild-running, […] convulsion and tonic convulsion, then the ED50 value was calculated by Probit method.

[4] = target: T1, glycine-binding site of NMDA receptor complex (Rattus norvegicus, UniProt P35439); experiment: Receptor affinity: [3H]glycine binding to rat cerebral cortex membrane fraction; set-up: species or system Slc-Wistar rat; conditions: 100 nM [3H]glycine, 0° C. 10 min
T1 construct: from tissue; host or cells: rat cerebral cortex membrane fraction (Triton X-100 treated)
Experimental: as §1
Cerebral cortex of Slc-Wistar rat (body weight: 250˜300 g) was homogenized with 20 times volume of 5 mM Tris-acetate buffer (pH 7.4) containing 1 mM EGTA, 0.1 mM PMSF and 0.01% bacitracin […] and re-suspended (×4 times). The resultant suspension was restored at −80° C. until use. The froze suspension was thawed at room temperature and incubated at 2° C. in 0.08% triton X-100 solution for 10 min, then the mixture was washed 2 times and suspended into 50 mM Tris-acetate buffer (pH 7.4), to give a membrane fraction. The membrane fraction was incubated with 100 nM [^3H]glycine and a test compound of various concentrations at 0° C. for 10 min. The mixture was diluted and collected by filtration with Whatman GF/C paper to terminate the reaction, then the radioactivity of ^3H remained on the filter was determined with a liquid scintillation counter. The non-specific binding was determined using 1 mM non-radioactive glycine to calculate the IC50 value.

[5] = system: cerebral infarction; experiment: Inhibition effect on cerebral infarction (MCA occlusion/reperfusion); assay type: in vivo, Slc-Wistar rat; conditions: 24 hr of reperfusion
Excerpt: As to compound 2(2), the inhibition effect on cerebral infarction was examined. […] Briefly the animals were anesthetized with halothane (FLUOTHANE, Takeda Chemical Industries Ltd.). After median incision of the neck skin, the right external carotid artery (ECA) was carefully dissected. A coated nylon thread (#4-0, 17.5 mm, Nitcho Kogyo Co. Ltd.) was inserted from the lumen of the ECA to the right internal carotid artery to occlude the origin of the right middle cerebral artery. After surgery, anesthesia was immediately discontinued. […] After 1 hr of MCA occlusion, the thread was removed to allow reperfusion under halothane anesthesia. Body temperature was maintained at 37° C. with a heating pad during ischemic and reperfusion surgery.
The test compound was administered from 15 min after reperfusion for 1 hr by continuous infusion via a catheter (Clay Adams; PE-20) inserted into the femoral vein in a volume of 4 ml/kg/hr.
After 24 hr of reperfusion following 1 hr of MCA occlusion, rat was perfused with physiological saline containing heparin under pentobarbital anesthesia and the brain were removed after decapitation. The brain was cut into 12 coronal sections at 1 mm intervals using tissue chopper (McLWAIN) and immersed in saline containing 2% 2,3,5-triphenyltetrazolium-Cl (Wako Pure Chemical Industries, Ltd.) for 15 min. The stained brain sections were fixed by 10% formalin neutral buffered solution and infarct areas were quantified by an image analyzer system (OPTIMAS, Ver6.0) following scanning (Scantouch210, Nikon).

- IC50 [1]: 0.034 µM
- IC50 [4]: 7.5 µM
Structure (SMILES): N#CN=c1[nH]c2cc(-n3ccc(=O)cc3)c([N+](=O)[O-])cc2[nH]c1=O [compound 2(2), 2-cyanoimino-1,4-dihydro-7-(1,4-dihydro-4-oxo-1-pyridyl)-6-nitro-3-quinoxaline monosodium salt]
- Kidney tissue pathology [2]: no pathological unusual
- Weight of the kidney compared to the vehicle group [2]: has not changed
- Concentration of compound in the kidney (liquid chromatography) ([2]; kidney homogenate): not detected
- ED50 [3]: 6.9 mg/kg
- Infarct area at cerebral cortex (% of saline, mean ± standard error) ([5]; 0.3 mg/kg/h i.v. infusion for 1 hr from 15 min after reperfusion): 79.55 ± 13.99 % of saline
- Infarct area at cerebral cortex (% of saline, mean ± standard error) ([5]; 1 mg/kg/h i.v. infusion for 1 hr from 15 min after reperfusion): 55.99 ± 11.77 % of saline
- Infarct area at cerebral cortex (% of saline, mean ± standard error) ([5]; 3 mg/kg/h i.v. infusion for 1 hr from 15 min after reperfusion): 50.34 ± 10.14 % of saline
- Infarct area at cerebral cortex (% of saline, mean ± standard error) ([5]; 10 mg/kg/h i.v. infusion for 1 hr from 15 min after reperfusion): 46.71 ± 15.24 % of saline
